Reference: US20250353841A1 (BIOGEN MA INC., priority 2022, published 2025)

tested on: mHTT protein; assay: not given; conditions: HD patient cells; cited from earlier work

In the case of `CC1(C)CC(Oc2ccc(-c3ccc(-c4cn[nH]c4)cc3O)nn2)CC(C)(C)N1` [branaplam], the mHTT protein levels is listed as “lowers mHTT protein levels”.

tested on: mHTT protein; assay: not given; conditions: HD mouse model; cited from earlier work

In the case of `CC1(C)CC(Oc2ccc(-c3ccc(-c4cn[nH]c4)cc3O)nn2)CC(C)(C)N1` [branaplam], the mHTT protein levels is listed as “lowers mHTT protein levels”.

tested on: mHTT protein; assay: not given; conditions: blood samples from SMA Type I patients dosed orally; cited from earlier work

In the case of `CC1(C)CC(Oc2ccc(-c3ccc(-c4cn[nH]c4)cc3O)nn2)CC(C)(C)N1` [branaplam], the mHTT protein levels is given as “lowers mHTT protein levels”.

tested on: mutant Huntington (HTT) protein; assay: HTT Mutant HTRF iPSC assay (mHTT protein lowering); type: cell-based; conditions: human iPSC derived from a HTT patient with a poly-Q49 mutation

`COc1cc(-c2cc(C#N)c3nc(C)cn3c2)cc2cn(C3CCNCC3)nc12` [Compound 546, 6-(7-methoxy-2-(piperidin-4-yl)-2H-indazol-5-yl)-2-methylimidazo[1,2-a]pyridine-8-carbonitrile] and `COc1cc(-c2cc(F)c3nn(C)cc3c2)cc2cn(C3CCNCC3)nc12` [Compound 543, 7-fluoro-7′-methoxy-2-methyl-2′-(piperidin-4-yl)-2H,2′H-5,5′-biindazole] fall in the same range of IC50: 1000 to 9000 nM for the first, 1000 to 9000 nM for the second.

Compared with `Cc1cn2nc(-c3cc(F)c4nn(C5CCN(C)CC5)cc4c3)cc2c(C)n1` [Compound 371, 2-(7-fluoro-2-(1-methylpiperidin-4-yl)-2H-indazol-5-yl)-4,6-dimethylpyrazolo[1,5-a]pyrazine], `Cc1cn2nc(-c3cc(F)c4nc([C@H]5[C@@H]6CN(C)C[C@@H]65)cn4c3)cc2c(C)n1` [Compound 222, 2-(8-fluoro-2-((1R,5S,6r)-3-methyl-3-azabicyclo[3.1.0]hexan-6-yl)imidazo[1,2-a]pyridin-6-yl)-4,6-dimethylpyrazolo[1,5-a]pyrazine] is lower in IC50: 100 to 1000 nM for the first, under 100 nM for the second.

First: Cc1cn2cc(-c3cc(F)c4nc(C5CCNCC5)cn4c3)cc(C)c2n1 [Compound 95, 8-fluoro-2′,8′-dimethyl-2-(piperidin-4-yl)-6,6′-biimidazo[1,2-a]pyridine]
Second: CCc1cc(-c2cc(F)c3nc(C4CCNCC4)cn3c2)nn2cc(C)nc12 [Compound 197, 8-ethyl-6-(8-fluoro-2-(piperidin-4-yl)imidazo[1,2-a]pyridin-6-yl)-2-methylimidazo[1,2-b]pyridazine]
The IC50 of the first is higher: 100 to 1000 nM for the first, under 100 nM for the second.

`Cc1cn2nc(-c3cc(F)c4nc(N5CCC6(CCN(C)CC6)C5)oc4c3)cc(C(F)F)c2n1` [Compound 507, 6-(8-(difluoromethyl)-2-methylimidazo[1,2-b]pyridazin-6-yl)-4-fluoro-2-(8-methyl-2,8-diazaspiro[4.5]decan-2-yl)benzo[d]oxazole] and `Cc1cn2nc(-c3cc(F)c4nc(N5CCC(N(C)C)CC5)oc4c3)cc(C(F)(F)F)c2n1` [Compound 506, 1-(4-fluoro-6-(2-methyl-8-(trifluoromethyl)imidazo [1,2-b]pyridazin-6-yl)benzo[d]oxazol-2-yl)-N,N-dimethylpiperidin-4-amine] cannot be ordered by IC50: under 100 nM for the first, under 100 nM for the second.

`Cc1cn2nc(-c3cc(F)c4nc(C5CCN(C)C6(CC6)C5)cn4c3)cc(C)c2n1` (single isomer, unassigned) [Compound 209] and `Cc1cn2nc(-c3cc(F)c4nc(C5CCN(C6CCC6)CC5)cn4c3)cc(C)c2n1` [Compound 69, 6-[2-(1-cyclobutyl-4-piperidyl)-8-fluoro-imidazo[1,2-a]pyridin-6-yl]-2,8-dimethyl-imidazo[1,2-b]pyridazine] cannot be ordered by IC50: under 100 nM for the first, under 100 nM for the second.

`CN1CCC2(c3cn4cc(-c5cc(F)c6nn(C)cc6c5)cc(F)c4n3)CC1C2` [Compound 76, 5-(8-fluoro-6-(7-fluoro-2-methyl-2H-indazol-5-yl)imidazo[1,2-a]pyridin-2-yl)-2-methyl-2-azabicyclo[3.1.1]heptane] and `Cc1cn2nc(-c3cc(F)c4nc([C@@]56CC[C@H](C5)NC6)cn4c3)cc(C)c2n1` (single isomer, unassigned) [Compound 116] fall in the same range of IC50: 1000 to 9000 nM for the first, 1000 to 9000 nM for the second.

`Cc1nc2ccc(-c3ccc4nc([C@H]5[C@@H]6CN(C)C[C@@H]65)cn4c3)nn2n1` [Compound 553, 2-methyl-6-(2-((1R,5S,6r)-3-methyl-3-azabicyclo[3.1.0]hexan-6-yl)imidazo[1,2-a]pyridin-6-yl)-[1,2,4]triazolo[1,5-b]pyridazine] gave an IC50 of 100 to 1000 nM.
